According to US11998600B2, “Enhancing the therapeutic activity of an immune checkpoint inhibitor” (MaineHealth, priority 2015, dated 2024):

Test system: P38MAPK
Assay: P38MAPK phosphorylation in HUVECs attached to collagen peptides, Western blot
Format: cell-based, human
Details: cells attached to immobilized peptide; FIG. 6D
Method: Endothelial cells (HUVECs or HRMVECs) were incubated in serum free media with 1 mM MgCl2, 0.2 mM MnCl2 in the presence of a Src inhibitor, PP2, (10 μM) a P38MAPK inhibitor, SB202190 (10 μM) or vehicle only (DMSO) for 10 min at 37° C. Treated cells were then seeded on to immobilized P-1 and P-2 and lysates were collected at 15 min.
Whole cell and CAM tissue lysates were collected in RIPA buffer supplemented with 1× protease inhibitor and 1× phosphatase inhibitor and were run on polyacrylamide gels using denaturing conditions. Prior to loading the gels, 6× sample buffer was added to each of the lysates (final concentration 1×) and boiled for five minutes. Twenty to 50 μg of total protein were loaded into each lane. For detection of proteins larger than 50 kD, 10% gels were used; for proteins smaller than 50 kD 15% gels were used. Gels were run at 60 volts (v) until the dye front passed through the stacking gel, and then the voltage was increased to 100V for the remainder of the separation. Precision Plus protein standards (Bio-Rad) were used to visualize migration. Protein was transferred to nitrocellulose membranes using a wet tank system and blocked for 1 h using 10% non-fat dried milk in tris-buffered saline with 0.01% Tween-20 (TBS-T). […] Western blot bands were quantified using Image J software based on pixel intensity. […]

## QGPRGDKGE [Mab P-2]
  phosphorylation of P38MAPK in HUVECs, P-2 as compared to P-1: enhanced phosphorylation of P38MAPK
